Literature values as cited in patent US9227958B2, “Amorphous and crystalline forms of aprepitant and processes for the preparation thereof” (Glenmark Pharmaceuticals Limited, priority 2006, dated 2016).

Assays:
Settings in all cases: stated in words, background
corticosteroid receptors = tested on: corticosteroid receptors
[1] = target: T1, serotonin (5-HT3) receptors (Homo sapiens, UniProt P46098)
T1 sequence (P46098 24-478): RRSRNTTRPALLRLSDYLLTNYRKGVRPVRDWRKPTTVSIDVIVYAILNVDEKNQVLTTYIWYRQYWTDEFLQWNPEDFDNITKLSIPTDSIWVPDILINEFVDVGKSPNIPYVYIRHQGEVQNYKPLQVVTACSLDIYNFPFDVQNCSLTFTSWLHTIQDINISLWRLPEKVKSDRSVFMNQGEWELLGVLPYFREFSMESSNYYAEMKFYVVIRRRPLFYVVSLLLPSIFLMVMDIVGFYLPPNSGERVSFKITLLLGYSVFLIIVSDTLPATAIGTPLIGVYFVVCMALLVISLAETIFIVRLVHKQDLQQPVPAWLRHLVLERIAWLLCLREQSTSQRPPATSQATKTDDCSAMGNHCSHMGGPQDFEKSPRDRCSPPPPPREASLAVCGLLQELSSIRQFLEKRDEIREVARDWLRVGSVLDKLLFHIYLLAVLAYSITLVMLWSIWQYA

dopamine receptors = tested on: dopamine receptors
[2] = target: human substance P/neurokinin 1 (NK1) receptors (Homo sapiens, UniProt P25103)
Sequence of human substance P/neurokinin 1 (NK1) receptors (P25103 whole entry): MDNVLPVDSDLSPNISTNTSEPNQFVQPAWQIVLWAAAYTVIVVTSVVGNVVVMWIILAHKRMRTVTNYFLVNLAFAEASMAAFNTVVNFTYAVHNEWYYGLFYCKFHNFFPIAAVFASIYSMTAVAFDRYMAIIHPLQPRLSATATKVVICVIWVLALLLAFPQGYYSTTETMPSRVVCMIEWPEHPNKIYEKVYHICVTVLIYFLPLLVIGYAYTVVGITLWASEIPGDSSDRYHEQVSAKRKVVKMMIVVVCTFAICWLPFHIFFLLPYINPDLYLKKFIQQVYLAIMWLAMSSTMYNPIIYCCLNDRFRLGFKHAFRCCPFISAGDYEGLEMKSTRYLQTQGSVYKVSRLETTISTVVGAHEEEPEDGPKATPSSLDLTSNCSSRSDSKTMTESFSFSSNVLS

C[C@@H](O[C@H]1OCCN(Cc2n[nH]c(=O)[nH]2)[C@H]1c1ccc(F)cc1)c1cc(C(F)(F)F)cc(C(F)(F)F)c1 [Aprepitant]
affinity for corticosteroid receptors (corticosteroid receptors): little or no affinity | affinity for serotonin (5-HT3) receptors [1]: little or no affinity | affinity for dopamine receptors (dopamine receptors): little or no affinity | affinity / antagonism at human substance P/neurokinin 1 (NK1) receptors [2]: selective high-affinity antagonist
